Results: US20240360178A1, “MACROCYCLIC IMMUNOMODULATORS” (Bristol-Myers Squibb Company, priority 2021, published 2024)
Positions of bridges follow the written chain, without caps; N, C: chain ends. Non-standard residues stand in square brackets, D forms with d. Residues, ends and D or L forms follow the SMILES beside them. ξ: configuration not given here. *: point of attachment. Phe(4-COOH) = N[C@@H](Cc1ccc(C(=O)O)cc1)C(=O)O; Bip = N[C@@H](Cc1ccc(-c2ccccc2)cc1)C(=O)O; Phe(3-Me) = Cc1cccc(C[C@H](N)C(=O)O)c1; Val(3-OH) = CC(C)(O)[C@H](N)C(=O)O; NMeF = CN[C@@H](Cc1ccccc1)C(=O)O; hPhe = N[C@@H](CCc1ccccc1)C(=O)O; 4Pal = N[C@@H](Cc1ccncc1)C(=O)O; Cha = N[C@@H](CC1CCCCC1)C(=O)O; NMeL = CN[C@@H](CC(C)C)C(=O)O; dDab = NCC[C@@H](N)C(=O)O; ξR = N=C(N)NCCCC(N)C(=O)O; Carboxymethyl = O=C(O)C*; NMeA = CN[C@@H](C)C(=O)O; Nle = CCCC[C@H](N)C(=O)O; Orn = NCCC[C@H](N)C(=O)O; Dab = NCC[C@H](N)C(=O)O; Dap = NC[C@H](N)C(=O)O; ξV = CC(C)C(N)C(=O)O; Sar = CNCC(=O)O

What follows are compounds tested against T1, human PD-1 (Jurkat-PD-1 cells) / PE-labeled human PD-L1-Ig (Homo sapiens, UniProt Q15116) (assay: Jurkat-PD-1 Cell Binding High-Content Screening Assay (CBA); Jurkat hPD1-PDL1 assay). Conditions: Jurkat cell line over-expressing human PD-1; PE-labeled PD-L1-Ig 20 nM final; compound incubated 2 hours at 37° C.; read-out: Jurkat HPD1-PDL1 IC50.
T1 construct: expressed in transfected cells; host or cells: Jurkat cell line over-expressing human PD-1
T1 sequence (Q15116 25-288): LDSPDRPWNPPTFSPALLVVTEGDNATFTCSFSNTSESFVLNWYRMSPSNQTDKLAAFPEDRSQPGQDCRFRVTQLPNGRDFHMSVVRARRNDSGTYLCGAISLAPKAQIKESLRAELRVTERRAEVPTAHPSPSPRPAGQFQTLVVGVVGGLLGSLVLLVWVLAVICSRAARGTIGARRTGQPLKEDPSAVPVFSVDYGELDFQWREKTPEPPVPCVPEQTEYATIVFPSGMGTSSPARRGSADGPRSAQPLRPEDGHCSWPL
Description: The ability of the compounds of formula (I) to bind to PD-1 was investigated using a Jurkat-PD-1 Cell Binding High-Content Screening Assay.
Jurkat-PD-1 Cell Binding High-Content Screening Assay (CBA)
Phycoerythrin (PE) was covalently linked to the Ig epitope tag of human PD-L1-Ig and fluorescently-labeled PD-L1-Ig was used for binding studies with a Jurkat cell line over-expressing human PD-1 (Jurkat-PD-1). Briefly, 8×10^3 Jurkat-hPD-1 cells were seeded into 384 well plates in 20 μL of DMEM supplemented with 10% fetal calf serum. 100 nL of compound was added to cells followed by incubation at 37° C. for 2 hours. Then, 5 μL of PE-labeled PD-L1-Ig (20 nM final), diluted in DMEM supplemented with 10% fetal calf serum. […] Data was collected and processed using a Cell Insight NXT High Content Imager and associated software.

Structure (SMILES) | IC50
CC(C)C[C@@H]1NC(=O)[C@H](Cc2c[nH]c3ccccc23)NC(=O)[C@H](CC(=O)O)NC(=O)[C@H](Cc2ccc(OCC(=O)O)cc2)NC(=O)[C@H](Cc2ccncc2)NC(=O)CSC[C@@H](C(=O)N[C@@H](C)C(N)=O)NC(=O)[C@H](CO)NC(=O)[C@H](C(C)C)NC(=O)[C@H](CC(C)C)NC(=O)[C@H](CC(N)=O)NC(=O)[C@H]2CCCN2C(=O)[C@H](C)N(C)C(=O)[C@H](C(C)C)NC(=O)[C@H](Cc2ccc(-c3ccccc3)cc2)NC1=O [Example 1391] ({CH2CO}-[4Pal]Y(Carboxymethyl)DWL[Bip]V[NMeA][dP]NLVSCA-NH2; thioether N-14) | 40 nM
CC[C@H](C)[C@@H]1NC(=O)[C@H](CC(C)C)NC(=O)[C@H](CC(N)=O)NC(=O)CN(C)C(=O)[C@H](C)N(C)C(=O)[C@H](C(C)C)NC(=O)[C@H](Cc2ccc(-c3ccccc3)cc2)NC(=O)[C@H](CC(C)C)NC(=O)[C@H](Cc2c[nH]c3ccccc23)NC(=O)[C@H](CC(=O)O)NC(=O)[C@H](Cc2ccc(O)cc2)NC(=O)[C@H](Cc2ccccc2)NC(=O)CSC[C@@H](C(=O)NCC(N)=O)NC(=O)[C@H](CO)NC1=O [Example 1142] ({CH2CO}-FYDWL[Bip]V[NMeA][Sar]NLISCG-NH2; thioether N-14) | 610 nM
CC(C)C[C@@H]1NC(=O)[C@H](Cc2c[nH]c3ccccc23)NC(=O)[C@H](CC(=O)O)NC(=O)[C@H](Cc2ccc(O)cc2)NC(=O)[C@H](Cc2ccccc2)NC(=O)CSC[C@@H](C(=O)N[C@@H](C)C(N)=O)NC(=O)[C@H](CO)NC(=O)[C@H](C(C)C)NC(=O)[C@H](CC(C)C)NC(=O)[C@H](CCCNC(=N)N)NC(=O)[C@H]2CCCN2C(=O)[C@H](C)N(C)C(=O)[C@H](CCCNC(=N)N)NC(=O)[C@H](Cc2ccc(-c3ccccc3)cc2)NC1=O [Example 1096] ({CH2CO}-FYDWL[Bip]R[NMeA][dP]RLVSCA-NH2; thioether N-14) | 280 nM
CC(C)C[C@@H]1NC(=O)[C@H](CCCNC(=N)N)NC(=O)[C@H](CC(C)C)N(C)C(=O)[C@H](C)N(C)C(=O)[C@H](CCCNC(=N)N)NC(=O)[C@H](Cc2ccc(-c3ccccc3)cc2)NC(=O)[C@H](C(C)C)NC(=O)[C@H](Cc2c[nH]c3ccccc23)NC(=O)[C@H](CC(=O)O)NC(=O)[C@H](Cc2ccc(O)cc2)NC(=O)[C@H](Cc2ccccc2)NC(=O)CSC[C@@H](C(=O)NCC(N)=O)NC(=O)[C@H](CO)NC(=O)[C@H](C(C)C)NC1=O [Example 1281] ({CH2CO}-FYDWV[Bip]R[NMeA][NMeL]RLVSCG-NH2; thioether N-14) | 460 nM
CC(C)C[C@@H]1NC(=O)[C@H](Cc2c[nH]c3ccccc23)NC(=O)[C@H](CC(=O)O)NC(=O)[C@H](Cc2ccc(O)cc2)NC(=O)[C@H](Cc2ccccc2)NC(=O)CSC[C@@H](C(=O)NCC(N)=O)NC(=O)[C@H]([C@@H](C)O)NC(=O)[C@H](C(C)C)NC(=O)[C@H](CC(C)C)NC(=O)[C@H](CCN)NC(=O)[C@H]2CCCN2C(=O)[C@H](CCN)NC(=O)[C@H](C(C)C)NC(=O)[C@H](Cc2ccc(-c3ccccc3)cc2)NC1=O [Example 1414] ({CH2CO}-FYDWL[Bip]V[Dab][dP][Dab]LVTCG-NH2; thioether N-14) | 320 nM
CC(C)C[C@@H]1NC(=O)[C@H](Cc2c[nH]c3ccccc23)NC(=O)[C@H](CC(=O)O)NC(=O)[C@H](Cc2ccc(O)cc2)NC(=O)[C@H](Cc2ccccc2)NC(=O)CSC[C@@H](C(=O)NCC(N)=O)NC(=O)[C@H]([C@@H](C)O)NC(=O)[C@H](C(C)C)NC(=O)[C@H](CC(C)C)NC(=O)[C@H](CC(N)=O)NC(=O)[C@H]2CCCN2C(=O)[C@H](CCN)NC(=O)[C@H](C(C)C)NC(=O)[C@H](Cc2ccc(-c3ccccc3)cc2)NC1=O [Example 1411] ({CH2CO}-FYDWL[Bip]V[Dab][dP]NLVTCG-NH2; thioether N-14) | 440 nM
CC(C)C[C@@H]1NC(=O)[C@H](Cc2c[nH]c3ccccc23)NC(=O)[C@H](CC(=O)O)NC(=O)[C@H](Cc2ccc(O)cc2)NC(=O)[C@H](CCc2ccccc2)NC(=O)CSC[C@@H](C(=O)N[C@@H](C)C(N)=O)NC(=O)[C@H](CO)NC(=O)[C@H](C(C)C)NC(=O)[C@H](CC(C)C)NC(=O)[C@H](CC(N)=O)NC(=O)CN(C)C(=O)[C@H](C)N(C)C(=O)[C@H](C(C)C)NC(=O)[C@H](Cc2ccc(-c3ccccc3)cc2)NC1=O [Example 1070] ({CH2CO}-[hPhe]YDWL[Bip]V[NMeA][Sar]NLVSCA-NH2; thioether N-14) | 180 nM
CC(C)C[C@@H]1NC(=O)[C@H](Cc2c[nH]c3ccccc23)NC(=O)[C@H](CC(=O)O)NC(=O)[C@H](Cc2ccc(O)cc2)NC(=O)[C@H](Cc2ccccc2)NC(=O)CSC[C@@H](C(=O)NCC(N)=O)NC(=O)[C@H](CO)NC(=O)[C@H](C(C)C)NC(=O)[C@H](CC(C)C)NC(=O)[C@H](CCN)NC(=O)[C@H]2CCCN2C(=O)[C@H](CCCN)NC(=O)[C@H](C(C)C)NC(=O)[C@H](Cc2ccc(-c3ccccc3)cc2)NC1=O [Example 1423] ({CH2CO}-FYDWL[Bip]V[Orn][dP][Dab]LVSCG-NH2; thioether N-14) | 100 nM
CC(C)C1NC(=O)[C@H](Cc2c[nH]c3ccccc23)NC(=O)[C@H](CC(=O)O)NC(=O)[C@H](Cc2ccc(C(=O)O)cc2)NC(=O)[C@H](Cc2ccc(OCC(=O)O)cc2)NC(=O)CSC[C@@H](C(=O)N[C@@H](C)C(N)=O)NC(=O)[C@H]([C@@H](C)O)NC(=O)[C@H](C(C)C)NC(=O)[C@H](CC2CCCCC2)NC(=O)[C@H](CCN)NC(=O)[C@H](Cc2ccccc2)N(C)C(=O)[C@H](CCCN)NC(=O)[C@H](CCC(=O)O)NC(=O)[C@H](Cc2ccc(-c3ccccc3)cc2)NC1=O (stereo partly drawn) [Example 1443] ({CH2CO}-Y(Carboxymethyl)[Phe(4-COOH)]DW[ξV][Bip]E[Orn][NMeF][Dab][Cha]VTCA-NH2; thioether N-14) | 80 nM
CCCC[C@@H]1NC(=O)[C@H](C(C)C)NC(=O)[C@H](Cc2ccccc2)N(C)C(=O)[C@H](CC(=O)O)NC(=O)[C@H](CCC(=O)O)NC(=O)[C@H](Cc2ccc(-c3ccccc3)cc2)NC(=O)[C@H](C(C)C)NC(=O)[C@H](Cc2c[nH]c3ccccc23)NC(=O)[C@H](CC(=O)O)NC(=O)[C@H](Cc2ccc(O)cc2)NC(=O)[C@H](Cc2ccccc2)NC(=O)CSC[C@@H](C(=O)NCC(N)=O)NC(=O)[C@H](CCCNC(=N)N)NC(=O)[C@H](C(C)C)NC1=O [Example 1191] ({CH2CO}-FYDWV[Bip]ED[NMeF]V[Nle]VRCG-NH2; thioether N-14) | 690 nM
CC(C)C[C@@H]1NC(=O)[C@H](Cc2c[nH]c3ccccc23)NC(=O)[C@H](CC(=O)O)NC(=O)[C@H](Cc2ccc(OCC(=O)O)cc2)NC(=O)[C@H](CN)NC(=O)CSC[C@@H](C(=O)N[C@@H](C)C(N)=O)NC(=O)[C@H](CO)NC(=O)[C@H](C(C)C)NC(=O)[C@H](CC(C)C)NC(=O)[C@H](CC(N)=O)NC(=O)[C@H]2CCCN2C(=O)[C@H](C)N(C)C(=O)[C@H](C(C)C)NC(=O)[C@H](Cc2ccc(-c3ccccc3)cc2)NC1=O [Example 1386] ({CH2CO}-[Dap]Y(Carboxymethyl)DWL[Bip]V[NMeA][dP]NLVSCA-NH2; thioether N-14) | 140 nM
CC(C)C[C@@H]1NC(=O)[C@H](Cc2c[nH]c3ccccc23)NC(=O)[C@H](CC(=O)O)NC(=O)[C@H](Cc2ccc(O)cc2)NC(=O)[C@H](Cc2ccccc2)NC(=O)CSC[C@@H](C(=O)N[C@@H](C)C(N)=O)NC(=O)[C@H](CO)NC(=O)[C@H](C(C)C)NC(=O)[C@H](CC(C)C)NC(=O)[C@H](CC(N)=O)NC(=O)[C@H]2CCCN2C(=O)[C@@H](CCN)NC(=O)[C@H](C(C)C)NC(=O)[C@H](Cc2ccc(-c3ccccc3)cc2)NC1=O [Example 1195] ({CH2CO}-FYDWL[Bip]V[dDab][dP]NLVSCA-NH2; thioether N-14) | 370 nM
CC(C)C[C@@H]1NC(=O)C(CCCNC(=N)N)NC(=O)[C@H](Cc2ccccc2)N(C)C(=O)[C@H](CCC(=O)O)NC(=O)[C@H](CCCNC(=N)N)NC(=O)[C@H](Cc2ccc(-c3ccccc3)cc2)NC(=O)[C@H](C(C)C)NC(=O)[C@H](Cc2c[nH]c3ccccc23)NC(=O)[C@H](CC(=O)O)NC(=O)[C@H](Cc2ccc(O)cc2)NC(=O)[C@H](Cc2ccccc2)NC(=O)CSC[C@@H](C(=O)NCC(N)=O)NC(=O)[C@H](CO)NC(=O)[C@H](C(C)C)NC1=O (stereo partly drawn) [Example 1223] ({CH2CO}-FYDWV[Bip]RE[NMeF][ξR]LVSCG-NH2; thioether N-14) | 990 nM
Cc1cccc(C[C@@H]2NC(=O)[C@H](Cc3ccccc3)NC(=O)CSC[C@@H](C(=O)N[C@@H](C)C(N)=O)NC(=O)[C@H](CO)NC(=O)[C@H](C(C)C)NC(=O)[C@H](CC(C)C)NC(=O)[C@H](CC(N)=O)NC(=O)[C@H]3CCCN3C(=O)[C@H](C)N(C)C(=O)[C@H](C(C)C)NC(=O)[C@H](Cc3ccc(-c4ccccc4)cc3)NC(=O)[C@H](CC(C)C)NC(=O)[C@H](Cc3c[nH]c4ccccc34)NC(=O)[C@H](CC(=O)O)NC2=O)c1 [Example 1033] ({CH2CO}-F[Phe(3-Me)]DWL[Bip]V[NMeA][dP]NLVSCA-NH2; thioether N-14) | 60 nM
Cc1cccc(C[C@@H]2NC(=O)[C@H](CC(=O)O)NC(=O)[C@H](Cc3ccc(OCC(=O)O)cc3)NC(=O)[C@H](Cc3ccncc3)NC(=O)CSC[C@@H](C(=O)N[C@@H](CCN)C(N)=O)NC(=O)[C@H](CO)NC(=O)[C@H](C(C)(C)O)NC(=O)[C@H](CC3CCCCC3)NC(=O)[C@H](CCN)NC(=O)[C@H]3CCCN3C(=O)[C@H](C)N(C)C(=O)[C@H](Cc3ccc(OCC(=O)O)cc3)NC(=O)[C@H](Cc3ccc(-c4ccccc4)cc3)NC(=O)[C@H](Cc3ccc(OCC(=O)O)cc3)NC2=O)c1 [Example 1179] ({CH2CO}-[4Pal]Y(Carboxymethyl)D[Phe(3-Me)]Y(Carboxymethyl)[Bip]Y(Carboxymethyl)[NMeA][dP][Dab][Cha][Val(3-OH)]SC[Dab]-NH2; thioether N-14) | 80 nM
